Test results as given in article PMC10786919, “Design-rules for stapled peptides with in vivo activity and their application to Mdm2/X antagonists” (Nature Communications, 2024).
In brackets after ≈: the same amount, converted by molar mass. Where two headings read alike, the source gives them in different places. Positions of bridges follow the written chain, without caps; N, C: chain ends. Non-standard residues stand in square brackets, D forms with d. Residues, ends and D or L forms follow the SMILES beside them. Lys(N3) = [N-]=[N+]=NCCCC[C@H](N)C(=O)O; R8 = C=CCCCCCC[C@@](C)(N)C(=O)O; Cba = N[C@@H](CC1CCC1)C(=O)O; S5 = C=CCCC[C@](C)(N)C(=O)O; βAla = NCCC(=O)O

Tests used:
[1] = Lactate dehydrogenase (LDH) release assay; format: cell-based
Procedure, shortened: (§1)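 Membrane damage measured as lactate dehydrogenase release (CytoTox-ONE kit) from p53-responsive β-lactamase reporter HCT116 cells plated at 8000 per well. Final DMSO 0.5%; geometric mean reported from a minimum of three biological replicates.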

[2] = Solubility assay (kinetic solubility, PBS pH 7); format: physicochemical; settings: pH 7, PBS; for solubility kinetic: pH 7, aqueous buffer, kinetic from dmso stock, read-out: Solubility
Procedure, shortened: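 Values derive from peak-area ratios of sample versus a 100 µM standard, scaled by that standard's concentration.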

Ca Ski cell line = settings: 72 h
Procedure, shortened: (§2)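 Compound dilution series (10 points, 3-fold, 10 mM top stock in DMSO) tested on overnight-plated Ca Ski cells in RPMI1640/10% FBS and on blasticidin-selected p53RE-bla HCT-116 cells in McCoy's 5A; read-out was CellTiter-Glo 2.0 luminescence after room-temperature equilibration.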

[3] = tested on: CellSensor p53RE-bla HCT-116 Cell Line; settings: 72 h
Procedure, shortened: as §2

in vitro = assay: in vitro
Procedure, shortened: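 Azido-peptide permeability was read as loss of NanoBRET signal (donor 450 nm, acceptor 610 nm) after adding NanoBret618-azide at 10 μM final.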

EPSA = format: physicochemical
[4] = Experimental LogD (partition coefficient); settings: for logD: not stated, Partition Coeff LogD
HCT116 cells = assay: Lactate dehydrogenase (LDH) release assay; format: cell-based
Procedure, shortened: as §1

[5] = tested on: Jump-In T-REx CHO-K1 BLA cells; assay: cells; format: cell-based; settings: Supplementary Table 1; 0% serum, 4 hours
[6] = Nanoclick permeability assay EC50

## CC(=O)N[C@@H](CCCCN=[N+]=[N-])C(=O)NCCC(=O)N[C@@H](CC(C)C)C(=O)N[C@H](C(=O)N[C@@H](Cc1ccccc1)C(=O)N[C@]1(C)CCCCCCC=CCCC[C@@](C)(C(=O)N[C@@H](CO)C(=O)N[C@@H](C)C(=O)N[C@@H](CCC(=O)O)C(N)=O)NC(=O)[C@H](CC2CCC2)NC(=O)[C@H](CCC(N)=O)NC(=O)[C@H](C)NC(=O)[C@H](Cc2c[nH]c3ccccc23)NC(=O)[C@H](Cc2ccc(O)cc2)NC(=O)[C@H](CCC(=O)O)NC1=O)[C@@H](C)O [MP-524]
[1]; LDH: Cytotoxicity assay: EC50
  EC50: > 50.7 µM
[2]
  solubility kinetic: 148 µM (≈ 300 µg/mL)
Ca Ski cell line
  EC50: > 49.8 µM
[3]
  EC50: 1.34 µM
In vitro; [6]
  cell entry EC50: 1.32 µM
EPSA
  EPSA: Poorly Behaved
[4]
  logD: 2.1

## CC(=O)N[C@@H](CCCCN=[N+]=[N-])C(=O)NCCC(=O)N[C@@H](CC(C)C)C(=O)N[C@H](C(=O)N[C@@H](Cc1ccccc1)C(=O)N[C@]1(C)CCCCCCC=CCCC[C@@](C)(C(=O)N[C@@H](CO)C(=O)N[C@@H](C)C(=O)N[C@@H](C)C(N)=O)NC(=O)[C@H](CCC(=O)O)NC(=O)[C@H](CCC(N)=O)NC(=O)[C@H](C)NC(=O)[C@H](Cc2c[nH]c3ccccc23)NC(=O)[C@H](Cc2ccc(O)cc2)NC(=O)[C@H](CCC(=O)O)NC1=O)[C@@H](C)O [MP-841]
[1]; LDH: Cytotoxicity assay: EC50
  EC50: > 50.7 µM
[2]
  solubility kinetic: 162 µM (≈ 320 µg/mL)
Ca Ski cell line
  EC50: > 49.8 µM
In vitro; [6]
  cell entry EC50: 0.878 µM
EPSA; EPSA
  EPSA: 255 A^2
[4]
  logD: 2.06

## CC(=O)N[C@@H](CCCCN=[N+]=[N-])C(=O)NCCC(=O)N[C@@H](CC(C)C)C(=O)N[C@H](C(=O)N[C@@H](CCC(=O)O)C(=O)N[C@]1(C)CCCCCCC=CCCC[C@@](C)(C(=O)N[C@@H](CO)C(=O)N[C@@H](C)C(=O)N[C@@H](C)C(N)=O)NC(=O)[C@H](CC2CCC2)NC(=O)[C@H](CCC(N)=O)NC(=O)[C@H](C)NC(=O)[C@H](Cc2c[nH]c3ccccc23)NC(=O)[C@H](Cc2ccc(O)cc2)NC(=O)[C@H](CCC(=O)O)NC1=O)[C@@H](C)O [MP-843]
[1]; LDH: Cytotoxicity assay: EC50
  EC50: > 50.7 µM
[2]
  solubility kinetic: 151 µM (≈ 295 µg/mL)
Ca Ski cell line
  EC50: > 49.8 µM
In vitro; [6]
  cell entry EC50: 0.597 µM
EPSA; EPSA
  EPSA: 208 A^2
[4]
  logD: 1.78

## CC(=O)N[C@@H](CCCCN=[N+]=[N-])C(=O)NCCC(=O)N[C@@H](CC(C)C)C(=O)N[C@H](C(=O)N[C@@H](Cc1ccccc1)C(=O)N[C@]1(C)CCCCCCC=CCCC[C@@](C)(C(=O)N[C@@H](CO)C(=O)N[C@@H](C)C(=O)N[C@@H](C)C(N)=O)NC(=O)[C@H](CC2CCC2)NC(=O)[C@H](CCC(N)=O)NC(=O)[C@H](C)NC(=O)[C@H](CCC(=O)O)NC(=O)[C@H](Cc2ccc(O)cc2)NC(=O)[C@H](CCC(=O)O)NC1=O)[C@@H](C)O [MP-956]
[1]; LDH: Cytotoxicity assay: EC50
  EC50: > 50.7 µM
[2]
  solubility kinetic: 175 µM (≈ 335 µg/mL)
Ca Ski cell line
  EC50: > 49.8 µM
In vitro; [6]
  cell entry EC50: 9.22 µM
EPSA; EPSA
  EPSA: 198 A^2
[4]
  logD: 1.7

## CC(=O)N[C@@H](CCCCN=[N+]=[N-])C(=O)NCCC(=O)N[C@@H](CC(C)C)C(=O)N[C@H](C(=O)N[C@@H](Cc1ccccc1)C(=O)N[C@]1(C)CCCCCCC=CCCC[C@@](C)(C(=O)N[C@@H](CCC(=O)O)C(=O)N[C@@H](CCC(=O)O)C(=O)N[C@@H](C)C(N)=O)NC(=O)[C@H](CC2CCC2)NC(=O)[C@H](CCC(N)=O)NC(=O)[C@H](CCC(=O)O)NC(=O)[C@H](Cc2c[nH]c3ccccc23)NC(=O)[C@H](Cc2ccc(O)cc2)NC(=O)[C@H](CCC(=O)O)NC1=O)[C@@H](C)O [MP-3684] (Ac-[Lys(N3)][βAla]LTF[R8]EYWEQ[Cba][S5]EEA-NH2; staple 6-13)
[1]; 0% FBS 4Hr, read-out: LDH: Cytotoxicity assay: EC50
  EC50: > 50.7 µM
[1]; 10% FBS 16Hr, read-out: LDH: Cytotoxicity assay: EC50
  EC50: > 50.7 µM
HCT116 cells; 0% FBS 4Hr
  LDH: Cytotoxicity assay: % Effect: 7.239%
HCT116 cells; 10% FBS 16Hr
  LDH: Cytotoxicity assay: % Effect: 0.1213%
[5]
  off-target effects (LDH release and/or counterscreen activity): none
In vitro
  cell entry EC50: 3.88 µM
EPSA
  EPSA: Poorly Behaved
[4]
  logD: 1.89

## CC(=O)N[C@@H](CCCCN=[N+]=[N-])C(=O)NCCC(=O)N[C@@H](CC(C)C)C(=O)N[C@@H](CC1CCC1)C(=O)N[C@@H](Cc1ccc(O)cc1)C(=O)N[C@]1(C)CCCCCCC=CCCC[C@@](C)(C(=O)N[C@@H](C)C(=O)N[C@@H](C)C(=O)N[C@@H](C)C(N)=O)NC(=O)[C@H](Cc2ccccc2)NC(=O)[C@H](Cc2c[nH]c3ccccc23)NC(=O)[C@H](CCC(=O)O)NC(=O)[C@H]([C@@H](C)O)NC(=O)[C@H](CCC(N)=O)NC(=O)[C@H](CO)NC1=O [MP-4204] (Ac-[Lys(N3)][βAla]L[Cba]Y[R8]SQTEWF[S5]AAA-NH2; staple 6-13)
[1]; LDH: Cytotoxicity assay: EC50
  EC50: > 50.7 µM
HCT116 cells
  LDH: Cytotoxicity assay: % Effect: 16.98%
[2]
  Solubility: Poorly Behaved
In vitro; [6]
  cell entry EC50: 0.669 µM
EPSA; EPSA
  EPSA: 191 A^2
[4]
  Partition Coeff LogD: Poorly Behaved
